# Experimental data from US20230234936A1, “COMPOUND FOR TARGETING AND DEGRADING PROTEIN, AND PREPARATION METHOD THEREFOR AND USE THEREOF” (SHANGHAI LEADINGTAC PHARMACEUTICAL CO., LTD., priority 2020, published 2023).
# Biological target: T1, IRAK4 protein in THP-1 cells (Homo sapiens, UniProt Q9NWZ3)
# T1 construct: endogenous in cells; host or cells: THP-1
# T1 sequence (Q9NWZ3 1-460): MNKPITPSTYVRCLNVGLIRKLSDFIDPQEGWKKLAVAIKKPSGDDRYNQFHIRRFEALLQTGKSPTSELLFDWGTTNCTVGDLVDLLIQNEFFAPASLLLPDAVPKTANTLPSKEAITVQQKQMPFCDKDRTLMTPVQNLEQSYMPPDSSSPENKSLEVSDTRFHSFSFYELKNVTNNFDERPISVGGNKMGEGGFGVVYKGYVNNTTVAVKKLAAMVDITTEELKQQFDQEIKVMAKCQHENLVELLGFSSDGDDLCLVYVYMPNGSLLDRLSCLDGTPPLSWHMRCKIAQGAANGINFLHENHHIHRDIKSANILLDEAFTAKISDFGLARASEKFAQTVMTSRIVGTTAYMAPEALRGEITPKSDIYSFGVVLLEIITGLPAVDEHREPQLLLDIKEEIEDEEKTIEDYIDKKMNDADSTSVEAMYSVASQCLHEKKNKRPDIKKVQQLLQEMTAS
# Experiment: Degradation of IRAK4 in THP-1 cells (Western blot)
# Format: cell-based
# Conditions: 24 hours, compound 1-3000 nM
# Method: Each well of the 24-well cell culture plate was inoculated with 0.95 mL THP-1 cells (stem cell bank of Chinese academy of sciences) with a cell density of 5×10^5 cells/well. The cell plate was placed in a 5% carbon dioxide incubator and cultured overnight at 37° C., then 50 μL compound in dimethyl sulfoxide was added. The final concentration of the compound was in the range of 1-3000 nM. After continuous cultivation for 24 hours, the cells were collected into a 1.5 mL centrifuge tube, centrifuged at 1000 rpm and 4° C. for 5 minutes. Cell precipitation was cleaned twice with 1-DPBS, resuspended cells were lysed with 200 μL lysate (cell lysate was Western and IP cell lysate (Beyotime), supplemented with 1 mM mixture of phenylmethylsulfonyl fluoride and protease inhibitor (Beyotime)), left on ice for 30 minutes, then centrifuged at 14000 g at 4° C. for 10 minutes, and the supernatant was taken to detect IRAK4 protein level by Western blot.
# Western blot method: The total protein concentration in the supernatant of cell lysis was determined by BCA protein quantitative kit (Tiangen). According to the concentration of total protein detected by BCA, the supernatant was adjusted to 0.2 μg/μL with PBS and 5× SDS-PAGE protein loading buffer (Beyotime), bathed in water at 100° C. for 10 minutes, then placed in ice bath for 5 minutes, centrifuged at 14000 g and 4° C. for 5 minutes, and then collected as WB loading sample. Prefabricated glue (KeyGEN) was used for protein electrophoresis with a loading amount of 10 μL (total protein 2 μg). After Tris-MOPS-SDS electrophoresis solution (Adamas), 120V constant pressure electrophoresis was performed. After electrophoresis, the protein on the adhesive strip was transferred to PVDF membrane with a constant current of […] for 50 minutes. After the membrane was transferred, the membrane was placed in 1×QuickBlock blocking buffer (Beyotime) and incubated for 30 minutes at room temperature. After blocking, PVDF membranes were incubated with IRAK4 primary antibody (Abcam) overnight at 4°, the membranes were washed with TBST buffer (2.4 g Tris, 8.8 g NaCl, 1.5 mL Tween 20, pH adjusted to 7.4, constant volume to 1 L) for 30 minutes, incubated with secondary antibody (Abcam) for 2 hours at room temperature, finally incubated with Clarity Western ECL Substrate(BIO-RAD) for 5 minutes for luminescence development, chemiluminescence imaging system (Clinx, chemiScope 6200 Touch) for development and protein mapping photography. The protein map was analyzed by Clinx chemiluminescence analysis software for grayscale values. Using the formula: grayscale correction value=(target protein grayscale value/corresponding internal reference grayscale value)×10^3, the grayscale correction value of each sample was calculated. The degradation rate was calculated by comparing with the grayscale correction value of the control group. Furthermore, DC50 and Dmax values of the compound were obtained by the nonlinear curve fitting with the logarithmic concentration-inhibition rate by GraphPad Prism 7.
SMILES,DC50,Dmax
CC(C)(O)c1cc2nn(C3CCN(CCC4CCN(C(=O)c5ccc(Cl)c(N6CCC(=O)NC6=O)c5)CC4)CC3)cc2cc1NC(=O)c1cccc(C(F)(F)F)n1 [Example 35],8.4 nM,95.2%

# Biological target: T2, IRAK4 kinase (Homo sapiens, UniProt Q9NWZ3)
# T2 sequence (Q9NWZ3 1-460): T1 sequence (Q9NWZ3 1-460)
# Experiment: IRAK4 kinase activity test (KinEASE-STK S1 HTRF kit)
# Format: biochemical
# Conditions: 2.5 nM kinase, 1 μM biotinylated polypeptide substrate, 7 μM ATP, 37° C. 120 min
# Method: KinEASE-STK S1 serine/threonine kinase kit (Cisbio) was used to detect the inhibitory effect of the compound on IRAK4 kinase activity. The specific method was: the compound was dissolved in dimethyl sulfoxide, and then it was diluted with the buffer solution of the kit by equal gradient to make the final concentration range of the tested compound in the reaction system 10000 nM-0.038 nM, then 2.5 nM kinase, 1 μM biotinylated polypeptide substrate and 7 μM adenosine triphosphate (ATP) were added in sequence and incubated at 37° C. for 120 min. Subsequently, anti-phosphorylated serine/threonine antibody coupled with europium element compound and modified XL665 streptavidin were added to the reaction system to terminate the reaction. After incubating at room temperature for 1 h, the fluorescence intensity of each well at the emission wavelength of 620 nm and 665 nm and the excitation wavelength of 337 nm was determined in HTRF mode on the microplate reader EnVision(PerkinElmer), the ratio value was calculated using the formula Ratio=(665 nm/620 nm)×10^4. By comparing with the fluorescence intensity ratio of the control group, the inhibition rate of the compound at each concentration was calculated, and then the IC50 value of the compound was obtained by fitting the nonlinear curve with the logarithmic concentration-inhibition rate by GraphPad Prism 7.
row,SMILES,IC50
1,CC(C)(O)c1cc2nn(C3CCN(CCC4CCC5(CC4)CCN(C(=O)c4ccc(OC(F)(F)F)c(N6CCC(=O)NC6=O)c4)CC5)CC3)cc2cc1NC(=O)c1cccc(C(F)(F)F)n1 [Example 37],30.5 nM
2,CC(C)(O)c1cc2nn(C3CCN(CCC4CCN(C(=O)c5ccc(Cl)c(N6CCC(=O)NC6=O)c5)CC4)CC3)cc2cc1NC(=O)c1cccc(C(F)(F)F)n1 [Example 35],10.3 nM
3,"CC(C)(O)c1cc2nn(C3CCN(CCC4CCC5(CC4)CCN(C(=O)c4ccc(C(F)(F)F)c(N6CCC(=O)NC6=O)c4)CC5)CC3)cc2cc1NC(=O)c1cccc(C(F)(F)F)n1 [Example 38, N-(2-(1-(2-(3-(3-(2,4-dioxotetrahydro-pyrimidin-1 (2H)-yl)-4-(trifluoro-methyl)benzoyl)-3-azaspiro[5.5]undec-9-yl)ethyl)piperidin-4-yl)-6-(2-hydroxyprop-2-yl)-2H-indazol-5-yl)-6-(trifluoro-methyl) pyridinecarbox-amide]",34.5 nM
4,"O=C1CCN(c2cc(C(=O)N3CCC4(CCC(CN5CCC(n6cc7cc(NC(=O)c8cccc(C(F)(F)F)n8)c(OC(F)(F)F)cc7n6)CC5)CC4)CC3)ccc2Cl)C(=O)N1 [Example 61, N-(2-(1-((3-(4-chloro-3-(2,4-dioxotetrahydro-pyrimidin-1 (2H)-yl)benzoyl)-3-azaspiro [5.5]undec-9-yl)methyl)piperidin-4-yl)-6-(trifluoromethoxy)-2H-indazol-5-yl)-6-(trifluoro-methyl) pyridinecarbox-amide]",128 nM
5,"COc1cc2nn(C3CCC4(CC3)CCN(CC3CCN(C(=O)c5ccc(Cl)c(N6CCC(=O)NC6=O)c5)CC3)CC4)cc2cc1NC(=O)c1cccc(C(F)(F)F)n1 [Example 57, N-(2-(3-((1-(4-chloro-3-(2,4-dioxotetrahydro-pyrimidin-1 (2H)-yl)benzoyl)piperidin-4-yl)methyl)-3-azaspiro [5.5]undec-9-yl)-6-methoxy-2H-inda-zol-5-yl)-6-(triflu-oromethyl) pyridinecarbox-amide]",3.8 nM
6,"COc1cc2nn(C3CCN(CCN4CC5(CCN(C(=O)c6ccc(OC)c(N7CCC(=O)NC7=O)c6)CC5)C4)CC3)cc2cc1NC(=O)c1cccc(C(F)(F)F)n1 [Example 15, N-(2-(1-(2-(7-(3-(2,4-dioxo-tetrahydropyrim-idin-1 (2H)-yl)-4-methoxy-benzoyl)-2,7-diazaspiro [3.5]non-2-yl)ethyl)piperidin-4-yl)-6-methoxy-2H-in-dazol-5-yl)-6-(tri-fluoromethyl) pyridinecarbox-amide]",6 nM
7,COc1cc2nn([C@H]3CC[C@H](CN(C)CCC4CCN(C(=O)c5ccc(F)c(C6CCC(=O)NC6=O)c5)CC4)CC3)cc2cc1NC(=O)c1cccc(C(F)(F)F)n1 (stereo partly drawn) [Example 52],9.2 nM
8,CC(C)(O)c1cc2nn(C3CCN(CCCC4CCN(C(=O)c5ccc(Cl)c(N6CCC(=O)NC6=O)c5)CC4)CC3)cc2cc1NC(=O)c1cccc(C(F)(F)F)n1 [Example 29],8.6 nM
9,CCOc1ccc(C(=O)N2CCC3(CCC(CCN4CCC(n5cc6cc(NC(=O)c7cccc(C(F)(F)F)n7)c(C(C)(C)O)cc6n5)CC4)CC3)CC2)cc1N1CCC(=O)NC1=O [Example 24],34.6 nM
10,"COc1cc2nn([C@H]3CC[C@@H](N4CCC5(CCN(C(=O)c6ccc(Cl)c(N7CCC(=O)NC7=O)c6)CC5)CC4)CC3)cc2cc1NC(=O)c1cccc(C(F)(F)F)n1 [Example 59, N-(2-((1s,4s)-4-(9-(4-chloro-3-(2,4-dioxotetrahydro-pyrimidin-1 (2H)-yl)benzoyl)-3,9-diazaspiro[5.5]undec-3-yl)cyclohexyl)-6-methoxy-2H-inda-zol-5-yl)-6-(trifluoro-methyl) pyridinecarbox-amide]",11 nM
11,"COc1cc2nn(C3CCN(CCN4CCN(C(=O)c5ccc(OC)c(N6CCC(=O)NC6=O)c5)CC4)CC3)cc2cc1NC(=O)c1cccc(C(F)(F)F)n1 [Example 14, N-(2-(1-(2-(4-(3-(2,4-dioxotetrahydropyrimidin-1 (2H)-yl)-4-methoxybenzoyl)piperazin-1-yl)ethyl)piperidin-4-yl)-6-methoxy-2H-indazol-5-yl)-6-(trifluoromethyl) pyridinecarboxamide]",6.9 nM
12,"COc1cc2nn(C3CCN(CCOCCNC(=O)c4ccc(OC)c(N5CCC(=O)NC5=O)c4)CC3)cc2cc1NC(=O)c1cccc(C(F)(F)F)n1 [Example 5, N-(2-(1-(2-(2-(3-(2,4-dioxotetrahydropyrim-idin-1 (2H)-yl)-4-methoxybenz-amido)ethoxy)ethyl)piperidin-4-yl)-6-me-thoxy-2H-indazol-5-yl)-6-(trifluoromethyl) pyridinecarboxamide]",9.1 nM
13,"COc1cc2nn(C3CCN(CCOCCOCCNC(=O)c4ccc(OC)c(N5CCC(=O)NC5=O)c4)CC3)cc2cc1NC(=O)c1cccc(C(F)(F)F)n1 [Example 8, N-(2-(1-(2-(2-(2-(3-(2,4-dioxotetrahydropyrimidin-1 (2H)-yl)-4-methoxybenz-amido)ethoxy)ethoxy)ethyl)piperidin-4-yl)-6-methoxy-2H-indazol-5-yl)-6-(trifluoro-methyl) pyridin-carboxamide]",10.5 nM
14,"COc1ccc(C(=O)N2CC3(CCN(CCN4CCC(n5cc6cc(NC(=O)c7cccc(C(F)(F)F)n7)c(C(C)(C)O)cc6n5)CC4)CC3)C2)cc1N1CCC(=O)NC1=O [Example 13, N-(2-(1-(2-(2-(3-(2,4-dioxotetrahydropyrimidin-1 (2H)-yl)-4-methoxybenzoyl)-2,7-diazaspiro [3.5]non-7-yl)ethyl)piperidin-4-yl)-6-(2-hydroxyprop-2-yl)-2H-indazol-5-yl)-6-(trifluoro-methyl) pyridinecarboxamide]",7.9 nM
15,"COc1cc2nn(C3CCN(CCCCCNC(=O)c4ccc(OC)c(N5CCC(=O)NC5=O)c4)CC3)cc2cc1NC(=O)c1cccc(C(F)(F)F)n1 [Example 4, N-(2-(1-(5-(3-(2,4-dioxotetrahydropyrimidin-1 (2H)-yl)-4-methoxybenzamido)pentyl)piperidin-4-yl)-6-methoxy-2H-indazol-5-yl)-6-(trifluoromethyl) pyridinecarboxamide]",12.2 nM
16,CN(C[C@H]1CC[C@H](n2cc3cc(NC(=O)c4cccc(C(F)(F)F)n4)c(C(C)(C)O)cc3n2)CC1)C1CCC2(CC1)CCN(C(=O)c1ccc(Cl)c(N3CCC(=O)NC3=O)c1)CC2 [Example 63],4.4 nM
